Source: patent US5821267A, “Amidino derivatives useful as nitric oxide synthase inhibitors” (priority 1996, dated 1998)

Key:
[1] = biological target: T1, Rat brain constitutive nitric oxide synthase (rnNOS) (Rattus norvegicus, UniProt P29476); test: Citrulline Assay for Nitric Oxide Synthase, rat brain constitutive NOS; format: biochemical; settings: rat brain cNOS; 50 nM calmodulin, 30 μM L-arginine, 37° C., 15 minutes
T1 construct: an extract of rat cerebellum and partially purified by DEAE-Sepharose chromatography; from tissue; host or cells: rat cerebellum (extract, partially purified by DEAE-Sepharose)
Description: Nitric oxide synthase activity was measured by monitoring the conversion of [3H]-arginine to [3H]-citrulline. Mouse inducible nitric oxide synthase (miNOS) was prepared from an extract of LPS-treated RAW 264.7 cells and partially purified by DEAE-Sepharose chromatography. Rat brain constitutive nitric oxide synthase (rnNOS) was preparedfrom an extract of rat cerebellum and partially purified by DEAE-Sepharose chromatography. Enzyme and inhibitors were incubated at 37° C. for 15 minutes in a reaction volume of 100 μL with the following components added to start the reaction: 50 mM Tris (pH 7.6), 1 mg/ml bovine serum albumin, 1 mM DTT, 2 mM CaCl2, 10 μM FAD, 10 μM tetrahydrobiopterin, 30 μM L-arginine containing L-[2,3-3H]-arginine at 300 cpm/pmole and 1 mM NADPH. For constitutive NOS, 50 nM calmodulin was also added. The reaction was terminated by addition of cold stop buffer containing 10 mM EGTA, 100 mM HEPES, pH 5.5 and 1 mM citrulline. [3H]-Citrulline was separated by chromatography on Dowex 50W X-8 cation exchange resin and radioactivity determined with a liquid scintillation counter.

[2] = test system: intracellular iNOS in RAW 264.7 cells; test: Raw Cell Nitrite Assay; format: cell-based; settings: Mus musculus, RAW264.7, LPS-induced RAW 264.7 cells, 30 μM L-arginine, 1 h at 37° C.
Description: RAW 264.7 cells are plated to confluency on a 96-well tissue culture plate grown overnight (17 h) in the presence of LPS to induce NOS. A row of 3-6 wells were left untreated and served as controls for subtraction of nonspecific background. The media was removed from each well and the cells are washed twice with Krebs-Ringers-Hepes (25 mM, pH 7.4) with 2 mg/ml glucose. The cells are then placed on ice and incubated with 50 μL of buffer containing L-arginine (30 μM) +/- inhibitors for 1 h. The assay is initiated by warming the plate to 37° C. in a water bath for 1 h. Production of nitrite by intracellular iNOS is linear with time. To terminate the cellular assay, the plate of cells is placed on ice and the nitrite-containing buffer removed and analyzed for nitrite using a previously published fluorescent determination for nitrite. All values are the average of triplicate wells and are compared to a background-subtracted induced set of cells (100% value).

[3] = biological target: T2, Mouse inducible nitric oxide synthase (miNOS) (Mus musculus, UniProt P29477); test: Citrulline Assay for Nitric Oxide Synthase, mouse inducible NOS; format: biochemical; settings: mouse iNOS; 30 μM L-arginine, 37° C., 15 minutes
T2 construct: was prepared from an extract of LPS-treated RAW 264.7 cells and partially purified by DEAE-Sepharose chromatography; endogenous in cells; host or cells: LPS-treated RAW 264.7 cells (extract, partially purified by DEAE-Sepharose)
T2 sequence (P29477 whole entry): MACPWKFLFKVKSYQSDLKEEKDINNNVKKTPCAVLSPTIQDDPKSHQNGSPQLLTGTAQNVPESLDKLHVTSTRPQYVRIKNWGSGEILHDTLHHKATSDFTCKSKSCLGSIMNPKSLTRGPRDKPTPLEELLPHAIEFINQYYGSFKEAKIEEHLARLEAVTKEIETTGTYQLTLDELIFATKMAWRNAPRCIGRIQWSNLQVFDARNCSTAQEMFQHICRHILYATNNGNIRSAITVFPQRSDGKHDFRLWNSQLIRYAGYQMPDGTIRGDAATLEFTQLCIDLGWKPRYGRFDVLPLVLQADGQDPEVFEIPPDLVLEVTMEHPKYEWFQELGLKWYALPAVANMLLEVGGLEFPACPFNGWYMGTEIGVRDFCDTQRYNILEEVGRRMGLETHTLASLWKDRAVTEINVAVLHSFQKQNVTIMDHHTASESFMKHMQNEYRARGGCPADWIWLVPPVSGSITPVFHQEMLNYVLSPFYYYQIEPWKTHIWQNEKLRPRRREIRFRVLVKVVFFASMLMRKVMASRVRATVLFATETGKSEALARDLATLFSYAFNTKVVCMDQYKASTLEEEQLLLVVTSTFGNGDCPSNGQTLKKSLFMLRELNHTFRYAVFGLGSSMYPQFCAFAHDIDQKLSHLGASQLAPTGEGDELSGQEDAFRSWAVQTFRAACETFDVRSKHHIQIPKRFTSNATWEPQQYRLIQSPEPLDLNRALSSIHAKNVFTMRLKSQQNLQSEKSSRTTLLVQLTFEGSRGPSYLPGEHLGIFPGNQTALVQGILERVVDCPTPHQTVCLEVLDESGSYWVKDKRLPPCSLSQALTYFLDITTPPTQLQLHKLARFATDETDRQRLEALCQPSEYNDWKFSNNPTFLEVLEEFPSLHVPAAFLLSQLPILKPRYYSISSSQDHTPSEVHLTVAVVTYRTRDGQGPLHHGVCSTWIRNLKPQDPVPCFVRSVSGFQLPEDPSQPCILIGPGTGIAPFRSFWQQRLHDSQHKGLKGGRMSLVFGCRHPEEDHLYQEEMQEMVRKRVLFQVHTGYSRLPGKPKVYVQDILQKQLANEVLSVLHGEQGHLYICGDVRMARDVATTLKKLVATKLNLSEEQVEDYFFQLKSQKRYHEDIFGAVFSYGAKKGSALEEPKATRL

| Structure (SMILES) | IC50 [1] | IC50 [2] | IC50 [3] |
| --- | --- | --- | --- |
| N=C(N)C1CC1 [Example 2, Cyclopropylcarbamidine] | 10 µM | 46 µM | 2.3 µM |
| CCCC(=N)N [Example 4, 1-Propylcarbamidine] | 7.3 µM | – | 2 µM |
| CSCC(=N)N [Example 11] | 7 µM | 60 µM | 2 µM |

The remaining lines, values ahead:

| IC50 [1] | IC50 [2] | IC50 [3] | Structure (SMILES) |
| --- | --- | --- | --- |
| 31 µM | – | 27 µM | CC(C)C(=N)N [Example 3, Isopropylcarbamidine] |
| 44 µM | – | 16 µM | CCC(=N)N [Example 5, Ethylcarbamidine] |
| 1.3 µM | 7 µM | 1 µM | N=C(N)c1cccs1 [Example 8, 2-Amidinothiophene] |
| 3 µM | 158 µM | 3 µM | N=C(N)c1ccco1 [Example 9, 2-Amidinofuran] |
